Results on 28 compounds are retold here after US20120071536A1, “N-[(2-AZABICYCLO[2.1.1]HEX-1-YL)-ARYL-METHYL]-BENZAMIDE DERIVATIVES, PREPARATION THEREOF, AND THERAPEUTIC USE THEREOF” (SANOFI, priority 2009, published 2012).

SMILES strings stand for the structures. Where a name gives a salt, the structure may show the parent alone.

Compound `CCN1CC2CC1(C(NC(=O)c1cccc(C(F)(F)F)c1Cl)c1ccccc1)C2.Cl` (racemic) had a melting point of 152 to 155 °C.
In turn, `Cl.O=C(NC(c1ccccc1)C12CC(CN1)C2)c1cc(C(F)(F)F)ccc1Cl` (racemic) came in with a melting point of 162.5 to 163.5 °C.
In turn, `Nc1ccc(C(NC(=O)c2cccc(C(F)(F)F)c2Cl)C23CC(CN2)C3)cc1` (racemic) (as salt: HCl) [Compound 1, N-[(4-Aminophenyl)(2-azabicyclo[2.1.1]hex-1-yl)methyl]-2-chloro-3-(trifluoromethyl)-benzamide] yielded a melting point of 195 to 197 °C.
The compound `Cc1cccc(C(NC(=O)c2cccc(C(F)(F)F)c2Cl)C23CC(CN2)C3)c1` (racemic) (as salt: HCl) [Compound 2, N-[(2-Azabicyclo[2.1.1]hex-1-yl)(m-tolyl)methyl]-2-chloro-3-(trifluoromethyl)benzamide] yielded a melting point of 159.5 to 160.5 °C.
For `COc1cccc(C(NC(=O)c2cccc(C(F)(F)F)c2Cl)C23CC(CN2)C3)c1` (racemic) (as salt: HCl) [Compound 3, N-[(2-Azabicyclo[2.1.1]hex-1-yl)(3-methoxyphenyl)methyl]-2-chloro-3-(trifluoro-methyl)benzamide], the melting point was 143 to 144 °C.
The figure for `O=C(NC(c1cccc(C(F)(F)F)c1)C12CC(CN1)C2)c1cccc(C(F)(F)F)c1Cl` (racemic) (as salt: HCl) [Compound 4, N-[(2-Azabicyclo[2.1.1]hex-1-yl)[3-(trifluoromethyl)phenyl]methyl]-2-chloro-3-(trifluoromethyl)benzamide] is 214 to 217 °C.
In turn, `CCS(=O)(=O)c1cc(C(=O)NC(c2ccccc2)C23CC(CN2)C3)c(OC)cc1Cl` (racemic) (as salt: HCl) [Compound 15, N-[(2-Azabicyclo[2.1.1]hex-1-yl)(phenyl)methyl]-4-chloro-5-(ethanesulphonyl)-2-methoxybenzamide] came in with a melting point of 232 to 233 °C.
The compound `O=C(NC(c1ccc2ccccc2c1)C12CC(CN1)C2)c1cccc(C(F)(F)F)c1Cl` (racemic) (as salt: HCl) [Compound 17, N-[(2-Azabicyclo[2.1.1]hex-1-yl)(naphth-2-yl)methyl]-2-chloro-3-(trifluoromethyl)-benzamide] returned a melting point of 135 to 170 °C.
Turning to `CCCN1CC2CC1(C(NC(=O)c1cc(Br)c(Cl)cc1N)c1ccccc1)C2` (racemic) (as salt: HCl) [Compound 21, 2-Amino-5-bromo-4-chloro-N-[(phenyl)(2-propyl-2-azabicyclo[2.1.1]hex-1-yl)methyl]-benzamide], the melting point is 153 to 154 °C.
Turning to `CC(C)(O)CN1CC2CC1(C(NC(=O)c1c(Cl)ccc(C(F)(F)F)c1Cl)c1ccccc1)C2` (racemic) (as salt: HCl) [Compound 22], the melting point lay within 178.5 to 179 °C.
With `O=C(NC(c1cccc(O)c1)C12CC(CN1)C2)c1cccc(C(F)(F)F)c1Cl` (racemic) (as salt: HCl) [Compound 24, N-[(2-Azabicyclo[2.1.1]hex-1-yl)(3-hydroxyphenyl)methyl]-2-chloro-3-(trifluoromethyl)-benzamide], the melting point lay within 187 to 188 °C.
`O=C(NC(c1ccccc1)C12CC(CN1CC1CC1)C2)c1cccc(C(F)(F)F)c1Cl` (racemic) (as salt: HCl) [Compound 25, 2-Chloro-N-[(2-cyclopropylmethyl-2-azabicyclo[2.1.1]hex-1-yl)(phenyl)methyl]-3-(trifluoromethyl)benzamide] returned a melting point of 240.5 to 241.5 °C.
Regarding `Cc1cccc(C)c1C(=O)NC(c1ccccc1)C12CC(CN1)C2` (racemic) (as salt: HCl) [Compound 27, N-[(2-Azabicyclo[2.1.1]hex-1-yl)(phenyl)methyl]-2,6-dimethylbenzamide], the melting point was in the range of 273.5 to 274.5 °C.
As for `CCc1ccccc1C(=O)NC(c1ccccc1)C12CC(CN1)C2` (racemic) (as salt: HCl) [Compound 28, N-[(2-Azabicyclo[2.1.1]hex-1-yl)(phenyl)methyl]-2-ethylbenzamide], the melting point was 264 to 265 °C.
The compound `Cc1cccc(C(NC(=O)c2c(Cl)ccc(C(F)(F)F)c2Cl)C23CC(CN2)C3)c1` (racemic) (as salt: HCl) [Compound 29, N-[(2-Azabicyclo[2.1.1]hex-1-yl)(m-tolyl)methyl]-2,6-dichloro-3-(trifluoromethyl)-benzamide] showed a melting point of 146 to 147 °C.
On to `CCN1CC2CC1(C(NC(=O)c1c(C)cccc1C)c1ccccc1)C2` (racemic) (as salt: HCl) [Compound 30, N-[(2-Ethyl-2-azabicyclo[2.1.1]hex-1-yl)(phenyl)methyl]-2,6-dimethylbenzamide], for which the melting point lay in the range of 212 to 214 °C.
The figure for `CCc1ccccc1C(=O)NC(c1ccccc1)C12CC(CN1CC)C2` (racemic) (as salt: HCl) [Compound 31, 2-Ethyl-N-[(2-ethyl-2-azabicyclo[2.1.1]hex-1-yl)(phenyl)methyl]benzamide] is 241 to 242 °C; for `Cc1c(C(F)(F)F)ccc(Cl)c1C(=O)NC(c1ccccc1)C12CC(CN1)C2` (racemic) (as salt: HCl) [Compound 32, N-[(2-Azabicyclo[2.1.1]hex-1-yl)(phenyl)methyl]-6-chloro-2-methyl-3-(trifluoromethyl)-benzamide] it is 200 to 201 °C.
Turning to `O=C(NC(c1ccccc1)C12CC(CN1Cc1ccccc1)C2)c1cccc(C(F)(F)F)c1Cl` (racemic) (as salt: HCl) [Compound 33, N-[(2-Benzyl-2-azabicyclo[2.1.1]hex-1-yl)(phenyl)methyl]-2-chloro-3-(trifluoromethyl)-benzamide], the melting point fell in the range of 244 to 245.5 °C.
As for `Cc1c(C(=O)NC(c2ccccc2)C23CC(CN2)C3)cccc1C(F)(F)F` (racemic) [Compound 7, N-[(2-Azabicyclo[2.1.1]hex-1-yl)(phenyl)methyl]-2-methyl-3-(trifluoromethyl)-benzamide], the melting point was in the range of 146 to 147 °C.
Compound `O=C(NC(c1ccccc1)C12CC(CN1)C2)c1c(Cl)ccc(C(F)(F)F)c1Cl` (racemic) [Compound 8, N-[(2-Azabicyclo[2.1.1]hex-1-yl)(phenyl)methyl]-2,6-dichloro-3-(trifluoromethyl)-benzamide] displayed a melting point of 80.5 to 81.5 °C.
The compound `Cc1ccc(F)c(C(=O)NC(c2ccccc2)C23CC(CN2)C3)c1Cl` (racemic) [Compound 10, N-[(2-Azabicyclo[2.1.1]hex-1-yl)(phenyl)methyl]-2-chloro-6-fluoro-3-methylbenzamide] had a melting point of 123 to 124 °C.
`Cc1cccc(C(=O)NC(c2ccccc2)C23CC(CN2)C3)c1Cl` (racemic) [Compound 12, N-[(2-Azabicyclo[2.1.1]hex-1-yl)(phenyl)methyl]-2-chloro-3-methylbenzamide] displayed a melting point of 139.5 to 140.5 °C.
The compound `O=C(NC(c1ccc(F)cc1)C12CC(CN1)C2)c1cccc(C(F)(F)F)c1Cl` (racemic) [Compound 16, N-[(2-Azabicyclo[2.1.1]hex-1-yl)(4-fluorophenyl)methyl]-2-chloro-3-(trifluoromethyl)-benzamide] registered a melting point of 172.5 to 173 °C.
In turn, `C=CCN1CC2CC1(C(NC(=O)c1cc(Br)c(Cl)cc1N)c1ccccc1)C2` (racemic) [Compound 20, N-[(2-Allyl-2-azabicyclo[2.1.1]hex-1-yl)(phenyl)methyl]-2-amino-5-bromo-4-chloro-benzamide] yielded a melting point of 66 to 67 °C.
Regarding `O=C(NC(c1ccccc1)C12CC(CN1)C2)c1cccc(C(F)(F)F)c1Cl` (single isomer, unassigned; (+)) (as salt: HCl) [Compound 14, (+)-N-[(2-Azabicyclo[2.1.1]hex-1-yl)(phenyl)methyl]-2-chloro-3-(trifluoromethyl)-benzamide], the melting point fell in the range of 160 to 170 °C.
Take `CCN1CC2CC1(C(NC(=O)c1cccc(C(F)(F)F)c1Cl)c1ccccc1)C2` (single isomer, unassigned; (+)) (as salt: HCl) [Compound 26, (+)-2-Chloro-N-[(2-ethyl-2-azabicyclo[2.1.1]hex-1-yl)(phenyl)methyl]-3-(trifluoromethyl)benzamide]: the melting point fell in the range of 257 to 259 °C.
`O=C(NC(c1ccccc1)C12CC(CN1)C2)c1cccc(C(F)(F)F)c1Cl` (single isomer, unassigned; (-)) (as salt: HCl) [Compound 13, (−)N-[(2-Azabicyclo[2.1.1]hex-1-yl)(phenyl)methyl]-2-chloro-3-(trifluoromethyl)-benzamide] showed a melting point of 140 to 150 °C.
